In patent US11512085B2, “Heteroaryl compound having drug activity” (SHANGHAI DUDE MEDICAL TECHNOLOGY CO., LTD, priority 2017, dated 2022):

Experiments:
SU-DHL-4 = assay: In vitro tumor cell proliferation (CellTiter-Glo), SU-DHL-4; type: cell-based; details: Homo sapiens, SU-DHL-4, 72 h; read-out: Growth IC50
Method: (§1) Biological Embodiment 8: Study on Effects of Active Compounds for Inhibiting In Vitro Tumor Cell Proliferation
(§2) Promega CellTiter-Glo cell activity detection kit by luminescence (Promega-G7573).
(§3) Tumor cell lines were cultured in a 5% of CO2 incubator at 37° C. according to respective culture conditions; and periodic passage was performed, and cells positioned in a logarithmic phase were taken for planking.
(§4) 3) 90 μL of cell suspension was added into each well of the culture plate, and a culture solution containing no cell was added into blank control;
(§5) 4) the culture plate was cultured overnight in the 5% of CO2 incubator having relative humidity of 100% at 37° C.
(§6) Preparation of a 400× compound storage plate: the compound was diluted from the maximum concentration gradient to the lowest concentration with DMSO. […]
(§7) The following steps were performed according to the specification of the Promega CellTiter-Glo cell activity detection kit by luminescence (Promega-G7573). […]
(§8) 9) the luminescence signal was detected on the 2104 EnVision plate reader.

TMD8 = assay: In vitro tumor cell proliferation (CellTiter-Glo), TMD8; type: cell-based; details: Homo sapiens, TMD8, 72 h; read-out: Growth IC50
Method: as §1, §2, §3, §4, §5, §6, §7, §8

SU-DHL-6 = assay: In vitro tumor cell proliferation (CellTiter-Glo), SU-DHL-6; type: cell-based; details: Homo sapiens, SU-DHL-6, 72 h; read-out: Growth IC50
Method: as §1, §2, §3, §4, §5, §6, §7, §8

[1] = Pharmacokinetic study, single intravenous and oral dose, SD rats; type: in vivo; details: male, blood; for AUC(0-t) / Cmax / Tmax / half-life: Rat; for half-life: read-out: T½ (converted)
Method: (§9) Biological Embodiment 7: Pharmacokinetic Study of Performing Respective Single Intravenous and Oral Dose Delivery with Test Samples on SD Rats and Beagle Dogs
6 male SD rats were selected, and grouped and administered according to an experimental design table; 3 animals in the first group were intravenously administered once on the day of administration, wherein the administration dosage was 2 mg/kg, and the administration volume was 5 mL/kg; 3 animals in the second group were orally intragastrically administered once on the day of administration, wherein the administration dosage was 10 mg/kg, and the administration volume was 10 mL/kg.
(§10) All the animals were subjected to cage edge observation twice every day so as to determine whether the animals got ill or had injuries or death and other situations and whether supply of foods and water was sufficient. In the test process, all administered animals were subjected to detailed clinical observation before administration and at blood collection points.
Before administration (0 h) and within 0.083 h, 0.25 h, 0.5 h, 1 h, 2 h, 4 h, 6 h, 8 h and 24 h after administration, blood samples were collected from femoral veins at 10 time points so as to be used for blood concentration test.

OCI-LY3 = assay: In vitro tumor cell proliferation (CellTiter-Glo), OCI-LY3; type: cell-based; details: Homo sapiens, OCI-Ly3, 72 h; read-out: Growth IC50
Method: as §1, §2, §3, §4, §5, §6, §7, §8

B cells = assay: B cell activation (anti-human IgM, CD69 staining); type: cell-based; details: concentration of 0.1 uM
Method: Biological Embodiment 3: Influences of In-Vitro Test Compounds on PBMC/B/T Cell Activation
4.3 Isolation of B Cells and T Cells
Cell Isolation Programs Shall Refer to […] Kits
4.4.1 Activation of B Cells
The co-culture system is as follows:
Antibody Staining and Data Analysis
Antibody staining was performed within 24 hours […] according to a standard method.
4.5.1 Activation of PBMC and B Cells
LIVE/DEAD Fixable Violet Dead Cell Stain Kit

[2] = Pharmacokinetic study, single intravenous and oral dose, beagle dogs; type: in vivo; details: male, blood; for AUC(0-t) / Cmax / Tmax / half-life: Dog; for half-life: read-out: T½ (converted)
Method: as §9
6 male beagle dogs were selected, grouped and administered according to an experimental design table; 3 animals in the first group were intravenously administered once on the day of administration, wherein the administration dosage was 2 mg/kg, and the administration volume was 2.5 mL/kg; 3 animals in the second group were orally intragastrically administered once on the day of administration, wherein the administration dosage was 30 mg/kg, and the administration volume was 5 mL/kg.
as §10
Before administration (0 h) and within 0.083 h, 0.25 h, 0.5 h, 1 h, 2 h, 4 h, 6 h, 8 h and 24 h after administration, blood samples were collected from femoral veins at 10 time points so as to be used for blood concentration test. Experimental design table

SU-DHL-10 = assay: In vitro tumor cell proliferation (CellTiter-Glo), SU-DHL-10; type: cell-based; details: Homo sapiens, SU-DHL10; SU-DHL-10, 72 h; read-out: Growth IC50
Method: as §1, §2, §3, §4, §5, §6, §7, §8

Compound: C=CC(=O)NN1CCCC(n2nc(-c3ccc(Oc4ccccc4)cc3)c3c(N)ncnc32)C1 (stereo not drawn) [Embodiment 6, N-(3-(4-amino-3-(4-phenoxyphenyl)-1H-pyrazolo[3,4-D]pyrimidine-1-yl)-1-piperidyl)-acrylamide]
- IC50 (SU-DHL-4): 75 nM
- IC50 (TMD8): 0.85 nM
- IC50 (SU-DHL-6): > 10000 nM
- AUC(0-t) ([1]; IV, 2 mg/kg): 271 ng·h/mL
- Cmax ([1]; IV, 2 mg/kg): 658 ng/mL
- Tmax ([1]; IV, 2 mg/kg): 4.98 min
- half-life ([1]; IV, 2 mg/kg): 10.8 min
- AUC(0-t) ([1]; PO, 10 mg/kg): 449 ng·h/mL
- Cmax ([1]; PO, 10 mg/kg): 447 ng/mL
- Tmax ([1]; PO, 10 mg/kg): 25.2 min
- half-life ([1]; PO, 10 mg/kg): 113 min
- bioavailability ([1]; rat, oral, 10 mg/kg): 32.2%
- IC50 (OCI-LY3): > 10000 nM
- B cell activity inhibition effect (B cells): obvious B cell activity inhibition effects
- AUC(0-t) ([2]; IV, 2 mg/kg): 888 ng·h/mL
- Cmax ([2]; IV, 2 mg/kg): 1230 ng/mL
- Tmax ([2]; IV, 2 mg/kg): 4.98 min
- half-life ([2]; IV, 2 mg/kg): 48 min
- AUC(0-t) ([2]; PO, 30 mg/kg): 7420 ng·h/mL
- Cmax ([2]; PO, 30 mg/kg): 3830 ng/mL
- Tmax ([2]; PO, 30 mg/kg): 49.8 min
- half-life ([2]; PO, 30 mg/kg): 45 min
- bioavailability ([2]; dog, oral, 30 mg/kg): 54.6%
- IC50 (SU-DHL-10): > 10000 nM
